The source of these data is EP4664463A1, “COMPUTER-IMPLEMENTED METHOD FOR OLFACTORY PROPERTY PREDICTION” (Givaudan SA, priority 2024, dated 2025).

What all share (type): cell-based
Data set [1] deals with T1, OR10A3 (Homo sapiens, UniProt P58181).
T1 construct: expressed in transfected cells; host or cells: HEK293T stably expressing human RTP1S(V227I) and RTP2(L220R) (general method)
T1 sequence (P58181 with tags, fused parts or gaps): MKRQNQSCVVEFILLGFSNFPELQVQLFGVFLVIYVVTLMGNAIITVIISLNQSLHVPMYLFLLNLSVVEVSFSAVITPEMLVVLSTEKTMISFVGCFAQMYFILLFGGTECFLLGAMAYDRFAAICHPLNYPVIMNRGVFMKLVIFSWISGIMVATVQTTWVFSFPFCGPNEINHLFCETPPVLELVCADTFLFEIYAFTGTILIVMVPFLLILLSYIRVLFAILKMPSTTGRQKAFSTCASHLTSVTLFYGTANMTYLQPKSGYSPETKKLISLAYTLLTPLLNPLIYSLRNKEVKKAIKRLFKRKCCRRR
The data set is described as follows: Luciferase assay with odorant mixtures/single ingredients, OR with SEQ ID NO: 221. From the text: (§1) All human class II OR and all key genetic variants of these OR were synthesized with a sequence coding for an identical modified C-terminal domain […] (SEQ ID NO: 221) in the vector pcDNA3.1(+) to generate a library of all class II OR with an improved C-terminal domain. Class II OR library members with modified C-terminal domains
(§2) Similarly, a mixture of odorants with fruity-lactonic descriptors was made containing equal amounts of dodecalactone delta, heptalactone gamma, octalactone gamma, nonalactone gamma, undecalactone gamma, decalactone gamma, dodecalactone gamma, decalactone delta, methyl tuberate and nectaryl. […] Table 25. OR identified by screening class II OR with a mixture of fruity lactones
(§3) In a subsequent de-convolution experiment, the single ingredients were tested in a dose-response test on all the identified OR. […] Thus, OR2AP1 and OR2J2 are particularly strongly activated by the long-chain dodecalactone gamma, while OR10A3 is very sensitive to several longer chain lactones. […] Among the five OR, OR10A3 is the most sensitive. […] Table 26. OR identified by screening class II OR with a mixture of fruity lactones tested with individual lactones in a dose-response analysis

For data set [2], the target named is T2, OR10A6(A117V,V140G,L287P) (Homo sapiens, UniProt Q8NH74, A117V/L287P/V140G).
T2 construct: expressed in transfected cells; host or cells: HEK293T stably expressing human RTP1S(V227I) and RTP2(L220R) (general method)
T2 sequence (Q8NH74 with tags, fused parts or gaps A117V/V140G/L287P): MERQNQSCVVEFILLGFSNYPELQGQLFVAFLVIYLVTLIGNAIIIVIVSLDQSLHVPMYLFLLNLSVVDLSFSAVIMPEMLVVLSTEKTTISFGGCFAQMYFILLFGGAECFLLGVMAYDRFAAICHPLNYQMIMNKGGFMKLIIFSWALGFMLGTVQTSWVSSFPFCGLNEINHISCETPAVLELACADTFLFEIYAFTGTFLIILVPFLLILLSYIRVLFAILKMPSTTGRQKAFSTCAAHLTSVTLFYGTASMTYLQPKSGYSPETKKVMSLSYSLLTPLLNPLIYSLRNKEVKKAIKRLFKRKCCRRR
Described as above.
Source text: as §1, §2, §3

Data set [3] deals with T3, OR10J1(M51I,I92M) (Homo sapiens, UniProt P30954, I103M/M62I).
T3 construct: expressed in transfected cells; host or cells: HEK293T stably expressing human RTP1S(V227I) and RTP2(L220R) (general method)
T3 sequence (P30954 with tags, fused parts or gaps M62I/I103M): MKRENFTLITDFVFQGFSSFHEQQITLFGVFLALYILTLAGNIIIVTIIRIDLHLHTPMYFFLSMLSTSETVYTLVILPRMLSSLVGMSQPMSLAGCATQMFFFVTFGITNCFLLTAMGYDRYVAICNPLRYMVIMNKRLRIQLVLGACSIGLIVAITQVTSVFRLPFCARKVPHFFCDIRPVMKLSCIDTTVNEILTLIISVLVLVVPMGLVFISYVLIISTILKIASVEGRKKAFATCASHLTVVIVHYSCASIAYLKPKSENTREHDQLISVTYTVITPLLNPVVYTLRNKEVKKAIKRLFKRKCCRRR
Described as above.
Source text: as §1, §2, §3

Data set [4] has as its target T4, OR2J2 (Homo sapiens, UniProt O76002, A146V/A218T/A302I/G300K/H297E/H74Y).
T4 construct: expressed in transfected cells; host or cells: HEK293T stably expressing human RTP1S(V227I) and RTP2(L220R) (general method)
T4 sequence (O76002 with tags, fused parts or gaps H74Y/A146V/A218T/H297E/G300K/A302I): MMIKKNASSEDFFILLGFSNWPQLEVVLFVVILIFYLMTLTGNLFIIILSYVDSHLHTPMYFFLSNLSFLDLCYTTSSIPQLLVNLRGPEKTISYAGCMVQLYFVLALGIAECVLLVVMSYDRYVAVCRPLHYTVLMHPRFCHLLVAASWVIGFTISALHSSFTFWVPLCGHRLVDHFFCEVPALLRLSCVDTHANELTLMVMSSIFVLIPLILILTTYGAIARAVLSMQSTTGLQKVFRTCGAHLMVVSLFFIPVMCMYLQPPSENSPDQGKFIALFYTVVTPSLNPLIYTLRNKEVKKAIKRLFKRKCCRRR
The description is as above.
Source text: as §1, §2, §3

In data set [5] the target is T5, OR2AP1 (Homo sapiens, UniProt Q8NGE2).
T5 construct: expressed in transfected cells; host or cells: HEK293T stably expressing human RTP1S(V227I) and RTP2(L220R) (general method)
T5 sequence (Q8NGE2 with tags, fused parts or gaps): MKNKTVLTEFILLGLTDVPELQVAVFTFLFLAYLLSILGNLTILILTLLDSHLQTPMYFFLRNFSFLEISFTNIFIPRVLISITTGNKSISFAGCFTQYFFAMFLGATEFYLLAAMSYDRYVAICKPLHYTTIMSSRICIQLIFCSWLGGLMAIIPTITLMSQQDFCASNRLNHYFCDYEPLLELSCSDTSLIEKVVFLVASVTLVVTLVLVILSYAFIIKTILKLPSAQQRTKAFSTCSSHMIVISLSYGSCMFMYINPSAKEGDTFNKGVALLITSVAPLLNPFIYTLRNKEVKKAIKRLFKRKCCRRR
The data set is described as above.

The target in data set [6] is T6, OR2T4 (Homo sapiens, UniProt Q8NH00, D328E/G331D/M330K).
T6 construct: expressed in transfected cells; host or cells: HEK293T cells stably expressing human RTP1S (V227I) and RTP2 (L220R)
T6 sequence (Q8NH00 with tags, fused parts or gaps D328E/M330K/G331D): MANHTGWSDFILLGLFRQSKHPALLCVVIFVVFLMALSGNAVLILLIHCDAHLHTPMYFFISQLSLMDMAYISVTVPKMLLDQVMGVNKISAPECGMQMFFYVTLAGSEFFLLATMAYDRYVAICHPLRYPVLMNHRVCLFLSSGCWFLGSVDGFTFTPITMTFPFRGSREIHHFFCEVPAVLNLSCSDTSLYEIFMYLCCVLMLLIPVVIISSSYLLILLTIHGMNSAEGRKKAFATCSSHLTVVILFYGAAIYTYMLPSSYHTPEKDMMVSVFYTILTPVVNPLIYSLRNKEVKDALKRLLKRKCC
The data set is described as follows: cell-based. The conditions noted are these: OR2T4 with SEQ ID NO: 86. From the text:
(§4) To create an expression plasmid, an OR coding sequence fused at the end of TM7 to the desired C-terminus sequence was synthesized by a DNA synthesis service provider (BioCat GmbH, Germany) and inserted into pcDNA3.1(+) (Invitrogen, MA, USA) downstream of the CMV promoter sequence (SEQ ID NO: 82) using BamHI and Notl restriction sites. All the synthetic OR nucleotide sequences described below in Examples 1-15 further contained at their N-terminus a nucleotide sequence encoding a signal peptide (mmLucy-FLAG-rho, SeQ ID NOs: 80, 81) and at the C-terminus the bgh terminator sequence (SEQ ID NO: 83). All the OR expression plasmids also contain a Kozak sequence (GCCACC) between the BamHI restriction site and the start codon of the signal peptide. These plasmids thus contain a constitutively expressed OR gene.

Data set [7] deals with T7, OR7C1 (Homo sapiens, UniProt O76099, D296E/G302K/M297V/R299D/T295K).
T7 construct: expressed in transfected cells; host or cells: HEK293T cells stably expressing human RTP1S (V227I) and RTP2 (L220R); transient transfection of pcDNA3.1(+) OR plasmid
T7 sequence (O76099 with tags, fused parts or gaps T295K/D296E/M297V/R299D/G302K limits assumed): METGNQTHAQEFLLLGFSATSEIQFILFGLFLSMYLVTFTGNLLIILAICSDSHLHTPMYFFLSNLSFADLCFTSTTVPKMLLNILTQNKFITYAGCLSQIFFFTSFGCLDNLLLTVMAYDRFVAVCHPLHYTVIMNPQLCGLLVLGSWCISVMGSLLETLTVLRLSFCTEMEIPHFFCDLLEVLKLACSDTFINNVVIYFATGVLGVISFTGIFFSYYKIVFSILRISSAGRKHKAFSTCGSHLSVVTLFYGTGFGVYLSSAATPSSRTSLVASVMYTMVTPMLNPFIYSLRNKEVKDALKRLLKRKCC
As to the kind of experiment: Luciferase dose-response, wild-type vs changed C-terminus (SEQ ID NO: 86). As to conditions: for EC50: read-out: Potency EC50.
Source text: as §4

Where two headings read alike, the source gives them in different places.

In the case of `CCCCC1CCC(=O)O1` (stereo not drawn) [Octalactone gamma], the “EC10 (concentration for 10-fold OR activation)” value in data set [1] is given as 26.93 µM. The “EC2 (concentration for 2-fold luciferase induction)” value in data set [2] is “inactive”; in data set [3], 101.73 µM; in data set [4] it was 65.20 µM; in data set [5] it was “inactive”.

As to `CCCCCC1CCC(=O)O1` (stereo not drawn) [Nonalactone gamma], the “EC10 (concentration for 10-fold OR activation)” value in data set [1] turned out to be 2.83 µM. Moreover, the “EC2 (concentration for 2-fold luciferase induction)” value is 11.34 µM in data set [2], 11.14 µM in data set [3], 12.85 µM in data set [4] and “inactive” in data set [5].

`CCCCCC1CCCC(=O)O1` (stereo not drawn) [Decalactone delta]: the “EC10 (concentration for 10-fold OR activation)” value in data set [1] is 2.10 µM. Besides, the “EC2 (concentration for 2-fold luciferase induction)” value in data set [2] is 5.31 µM; in data set [3], 31.73 µM; in data set [4], 98.89 µM; in data set [5], “inactive”.

`CC1=CCC(C(C)CC2CCCC2=O)CC1` (stereo not drawn) [Nectaryl]: the “EC10 (concentration for 10-fold OR activation)” value in data set [1] is 2.32 µM. In addition, the “EC2 (concentration for 2-fold luciferase induction)” value was 1.12 µM in data set [2], “inactive” in data set [3] and 19.72 µM in data set [5].

`CCCSSCCC` [dipropyl disulfide]: in data set [6], the “ligands identified in screening of sulfur odorants” value is on record as “good ligands”.

Turning to `CC1OCCC1S` (stereo not drawn) [2-methyl-3-tetrahydrofuranthiol], the “ligands identified in screening of sulfur odorants” value in data set [6] was “good ligands”.

On to `CCCCCCC1CCC(=O)O1` (stereo not drawn) [Decalactone gamma], for which the “EC10 (concentration for 10-fold OR activation)” value in data set [1] was found to be 0.84 µM. In addition, the “EC2 (concentration for 2-fold luciferase induction)” value in data set [2] was 1.62 µM; in data set [3] it was 3.63 µM; in data set [4], 3.27 µM; in data set [5], 33.66 µM.

For `CCCCCCCC1CCC(=O)O1` (stereo not drawn) [Undecalactone gamma], the “EC10 (concentration for 10-fold OR activation)” value in data set [1] was 0.28 µM. Besides, the “EC2 (concentration for 2-fold luciferase induction)” value is reported as 0.34 µM in data set [2], 2.11 µM in data set [3], 0.71 µM in data set [4] and 6.53 µM in data set [5].

On to `CC(CO)C1=C2C(C)(C)C3CCC2(C3)C(C)(C)CC1` (stereo not drawn) [Ambermax], for which, in data set [7], the Comments on efficacy is on record as 3.5-fold lower maximal induction for wild-type, the Fold-improvement potency stood at 2.7 and the Fold-improvement threshold worked out at 16.2. Further, the luciferase induction entry in data set [7] (1 µM, OR7C1 with SEQ ID NO: 86) is reported as “around 10 fold”. In addition, in data set [7] (changed C-term SEQ ID NO: 86), the EC50 was 2.3 µM. In addition, the “Detection threshold; concentration for 2-fold induction” value in data set [7] (changed C-term. SEQ ID NO: 86) worked out at 0.17 µM. Further, in data set [7] (wild-type), the “Detection threshold; concentration for 2-fold induction” value stood at 2.76 µM and the EC50 was 6.14 µM.

For the compound `CCCCCCCC1CCCC(=O)O1` (stereo not drawn) [Dodecalactone delta], the “EC10 (concentration for 10-fold OR activation)” value in data set [1] amounted to 2.59 µM. Further, the “EC2 (concentration for 2-fold luciferase induction)” value was found to be 1.11 µM in data set [2], 31.38 µM in data set [3], 35.12 µM in data set [4] and 15.76 µM in data set [5].

For `CCCCCCCCC1CCC(=O)O1` (stereo not drawn) [Dodecalactone gamma], the “EC10 (concentration for 10-fold OR activation)” value in data set [1] is listed as 0.85 µM. Moreover, the “EC2 (concentration for 2-fold luciferase induction)” value was determined as 0.48 µM in data set [2], 5.31 µM in data set [3], 1.41 µM in data set [4] and 1.31 µM in data set [5].

With `CCCC1CCC(=O)O1` (stereo not drawn) [Heptalactone gamma], the “EC10 (concentration for 10-fold OR activation)” value in data set [1] amounted to 298.04 µM. For the same compound, the “EC2 (concentration for 2-fold luciferase induction)” value in data set [2], in data set [3], in data set [4] and in data set [5] was “inactive” each time.

In general, EC50 refers to the concentration at which the effect is half-maximal.
